Laboratory results reported in US20230391774A1, “Novel Compounds” (AC Immune SA, priority 2020, published 2023).
Like-named read-outs stand apart in the source and are kept apart here.

Key:
[1] = target: T1, Tau K18 fragment aggregates (amino acids 244 to 372 of human Tau441) (Homo sapiens, UniProt P10636); experiment: Tau K18 disaggregation assay by ThT; assay type: biochemical; settings: ThT fluorescence; 2 μM K18 aggregates, 30 minutes at RT
T1 construct: encompassing amino acids 244 to 372 of the longest isoform (2N4R) of human Tau441; purchased Biotechne; host or cells: bacteria
T1 sequence (P10636 561-689): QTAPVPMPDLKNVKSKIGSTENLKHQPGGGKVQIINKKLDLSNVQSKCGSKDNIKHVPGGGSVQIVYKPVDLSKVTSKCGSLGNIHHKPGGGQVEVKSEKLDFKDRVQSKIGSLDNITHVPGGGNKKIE
Experimental: Tau K18 Disaggregation Assay by ThT
The Tau K18 fragment, encompassing amino acids 244 to 372 of the longest isoform (2N4R) of human Tau441, was expressed in bacteria and purified (Biotechne). For the K18 disaggregation assay by ThT, 35 μM of recombinant K18 in PBS were aggregated for 24 hours at 37° C. in presence of 25 μM of heparin (Sigma-Aldrich) and 10 mM of 1,4-Dithiothreito (DTT from Sigma-Aldrich) under shaking at 750 RPM. Compound 1 was dissolved in anhydrous dimethyl sulfoxide (DMSO, Sigma-Aldrich) to reach a concentration of 10 mM. K18 aggregates and serial dilutions of compounds were mixed together in PBS (volume 50 μL) to a final concentration of 2 μM of K18 aggregates and from 400 to 0.1 μM of Compound 1. The mixture was incubated for 30 minutes at room temperature (RT), then 40 μL of this mixture were transferred into a black 384-well plate assay (Perkin-Elmer) and mixed with 10 μL of 100 μM ThT in 250 mM glycine (both from Sigma-Aldrich) in PBS. Fluorescence (relative fluorescence units; RFU) was measured in monoplicate or duplicate on a Tecan reader (excitation: 440 nm; emission: 485 nm). Percentage of K18 disaggregation was then calculated and half maximal effective concentration (EC50) was determined using GraphPad Prism version 8 (GraphPad Software) assuming a one-binding site fitting model, see Table 3 and Table 4.

[2] = target: T2, flTau aggregates (longest isoform of human Tau, 2N4R) (Homo sapiens, UniProt P10636); experiment: Full-length Tau (flTau) disaggregation assay by Thioflavin T (ThT); assay type: biochemical; settings: 60 nM flTau aggregates, 30 minutes at RT
T2 construct: 35 μM of recombinant full-length (fl) Tau in phosphate-buffered saline (PBS) were aggregated; purchased Biotechne; host or cells: bacteria
T2 sequence (P10636 1-441 isoform P10636-8): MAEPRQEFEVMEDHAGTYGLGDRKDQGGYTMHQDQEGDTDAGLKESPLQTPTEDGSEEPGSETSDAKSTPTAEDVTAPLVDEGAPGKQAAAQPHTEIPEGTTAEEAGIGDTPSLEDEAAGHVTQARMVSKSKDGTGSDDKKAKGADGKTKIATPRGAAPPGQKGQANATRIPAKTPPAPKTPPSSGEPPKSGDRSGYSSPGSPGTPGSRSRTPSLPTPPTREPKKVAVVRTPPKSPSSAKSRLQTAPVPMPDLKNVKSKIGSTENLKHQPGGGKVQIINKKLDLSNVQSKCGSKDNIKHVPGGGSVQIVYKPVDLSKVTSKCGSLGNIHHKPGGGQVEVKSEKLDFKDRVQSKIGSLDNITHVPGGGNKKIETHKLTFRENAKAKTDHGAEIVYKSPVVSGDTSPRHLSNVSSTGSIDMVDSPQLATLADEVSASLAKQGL
Experimental: Full-Length Tau (flTau) Disaggregation Assay by Thioflavin T (ThT)
The longest isoform of human Tau (2N4R; 441 amino acids) was expressed in bacteria and purified (Biotechne). For the Tau disaggregation assay by ThT, 35 μM of recombinant full-length (fl) Tau in phosphate-buffered saline (PBS) were aggregated for 72 hours at 37° C. in presence of 35 μM of heparin (Sigma-Aldrich) and 10 mM of […] (Sigma-Aldrich) under shaking at 1000 RPM. Compound 1 was dissolved in anhydrous dimethyl sulfoxide (DMSO, Sigma-Aldrich) to reach a concentration of 2.5 mM. flTau aggregates and serial dilutions of compound 1 were mixed together in PBS (volume 50 μL) to a final concentration of 60 nM of flTau aggregates and from 20 to 0.0012 μM of Compound 1. The mixture was incubated for 30 minutes at room temperature (RT), then 40 μL of this mixture were transferred into a black 384-well plate assay (Perkin-Elmer) and mixed with 10 μL of 20 μM ThT in 250 mM glycine (both from Sigma-Aldrich) in PBS. Fluorescence (relative fluorescence units; RFU) was measured in monoplicate or duplicate on a Tecan reader (excitation: 440 nm; emission: 485 nm). Percentage of flTau disaggregation was then calculated and the half maximal effective concentration (EC50) was determined using GraphPad Prism version 8 (GraphPad Software) assuming a one-binding site fitting model, see Table 3 and Table 4.

[3] = ThT fluorescence, read-out: flTau disaggregation EC50

Row | SMILES | EC50 [2, 3] [nM] | also measured
1 | Cn1cc(C2CCN(c3ccc4oc(N5CCOCC5)nc4c3)CC2)c2cc(F)cnc21 [Example 23, 5-(4-(5-fluoro-1-methyl-1H-pyrrolo[2,3-b]pyridin-3-yl)piperidin-1-yl)-2-morpholinobenzo[d]oxazole] | – | EC50 [1]: 10000 to 50000 nM
2 | c1ccc2c(C3CCN(c4ccc5nc(N6CCOCC6)oc5n4)CC3)c[nH]c2c1 [Example 101, 5-(4-(1H-indol-3-yl)piperidin-1-yl)-2-morpholinooxazolo[5,4-b]pyridine] | – | EC50 [1]: 10000 to 50000 nM
3 | c1ccc2c(N3CCN(c4ccc5oc(N6CCOCC6)nc5c4)CC3)c[nH]c2c1 [Example 56, 5-(4-(1H-indol-3-yl)piperazin-1-yl)-2-morpholinobenzo[d]oxazole] | – | EC50 [1]: 1000 to 10000 nM
4 | Fc1cnc2c(C3CCN(c4ccc5nc(N6CCOCC6)oc5c4)CC3)c[nH]c2c1 [Example 103, 6-(4-(6-fluoro-1H-pyrrolo[3,2-b]pyridin-3-yl)piperidin-1-yl)-2-morpholinobenzo[d]oxazole] | – | EC50 [1]: 1000 to 10000 nM
5 | O=C(Nc1ccc2nc(N3CCOCC3)oc2c1)c1c[nH]c2ccccc12 [Example 14, N-(2-morpholinobenzo[d]oxazol-6-yl)-1H-indole-3-carboxamide] | – | EC50 [1]: 10000 to 50000 nM
6 | Cn1cc(C2CCN(c3ccc4oc(N5CCOCC5)nc4c3)C2)c2cc(F)cnc21 (stereo not shown) [Example 34, 5-(3-(5-fluoro-1-methyl-1H-pyrrolo[2,3-b]pyridin-3-yl)pyrrolidin-1-yl)-2-morpholinobenzo[d]oxazole] | – | EC50 [1]: 1000 to 10000 nM
7 | O=C(Nc1ccc2oc(N3CCOCC3)nc2c1)c1n[nH]c2ccccc12 [Example 18, N-(2-morpholinobenzo[d]oxazol-5-yl)-1H-indazole-3-carboxamide] | 1000 to 10000 | –
8 | Fc1cnc2[nH]cc(C3CCN(c4ccc5oc(N6CCOCC6)nc5c4)CC3)c2c1 [Example 22, 5-(4-(5-fluoro-1H-pyrrolo[2,3-b]pyridin-3-yl)piperidin-1-yl)-2-morpholinobenzo[d]oxazole] | 1000 to 10000 | –
9 | Cc1cccc2c(C3CCN(c4ccc5oc(N6CCOCC6)nc5c4)CC3)n[nH]c12 [Example 78, 5-(4-(7-methyl-1H-indazol-3-yl)piperidin-1-yl)-2-morpholinobenzo[d]oxazole] | 1000 to 10000 | –
10 | c1ccc2c(C3CCN(c4cnc5nc(N6CCOCC6)oc5c4)CC3)c[nH]c2c1 [Example 100, 6-(4-(1H-indol-3-yl)piperidin-1-yl)-2-morpholinooxazolo[4,5-b]pyridine] | 1000 to 10000 | –
11 | c1ccc2c(N3CCN(c4ccc5oc(N6CCOCC6)nc5c4)CC3)n[nH]c2c1 [Example 79, 5-(4-(1H-indazol-3-yl)piperazin-1-yl)-2-morpholinobenzo[d]oxazole] | < 1000 | –
12 | c1ccc2c(-c3ccn(-c4ccc5oc(N6CCOCC6)nc5c4)n3)n[nH]c2c1 [Example 10, 5-(3-(1H-indazol-3-yl)-1H-pyrazol-1-yl)-2-morpholinobenzo[d]oxazole] | < 1000 | –
13 | Fc1cnc2c(C3CCN(c4ccc5nc(N6CCOCC6)sc5c4)CC3)c[nH]c2c1 [Example 30, 4-(6-(4-(6-fluoro-1H-pyrrolo[3,2-b]pyridin-3-yl)piperidin-1-yl)benzo[d]thiazol-2-yl)morpholine] | < 1000 | –
14 | Cn1cc(C2CCN(c3ccc4oc(N5CCOCC5)nc4n3)C2)c2cc(F)cnc21 (stereo not shown) [Example 91, 5-(3-(5-fluoro-1-methyl-1H-pyrrolo[2,3-b]pyridin-3-yl)pyrrolidin-1-yl)-2-morpholinooxazolo[4,5-b]pyridine] | < 1000 | –
15 | Cc1ccc2[nH]nc(C3CCN(c4ccc5oc(N6CCOCC6)nc5c4)CC3)c2c1 [Example 76, 5-(4-(5-methyl-1H-indazol-3-yl)piperidin-1-yl)-2-morpholinobenzo[d]oxazole] | 1000 to 10000 | –
16 | c1ccc2c(-c3ccc4oc(N5CCOCC5)nc4c3)n[nH]c2c1 [Example 4, 5-(1H-indazol-3-yl)-2-morpholinobenzo[d]oxazole] | < 1000 | –

Row | SMILES | EC50 [2, 3] [nM] | also measured
17 | Cc1cccc2[nH]nc(C3CCN(c4ccc5oc(N6CCOCC6)nc5c4)CC3)c12 [Example 93, 5-(4-(4-methyl-1H-indazol-3-yl)piperidin-1-yl)-2-morpholinobenzo[d]oxazole] | 1000 to 10000 | –
18 | c1ccc2c(C3CCN(c4ccc5oc(N6CCOCC6)nc5c4)C3)c[nH]c2c1 (stereo not shown) [Example 40, 5-(3-(1H-indol-3-yl)pyrrolidin-1-yl)-2-morpholinobenzo[d]oxazole] | < 1000 | –
19 | Cn1cc(C2CCN(c3cnc4oc(N5CCOCC5)nc4c3)C2)c2cc(F)cnc21 (stereo not shown) [Example 84, 6-(3-(5-fluoro-1-methyl-1H-pyrrolo[2,3-b]pyridin-3-yl)pyrrolidin-1-yl)-2-morpholinooxazolo[5,4-b]pyridine] | 1000 to 10000 | –
20 | c1ccc2c(C3CCN(c4cnc5nc(N6CCOCC6)sc5c4)CC3)c[nH]c2c1 [Example 28, 4-(6-(4-(1H-indol-3-yl)piperidin-1-yl)thiazolo[4,5-b]pyridin-2-yl)morpholine] | < 1000 | –
21 | Cn1nc(C2CCN(c3ccc4oc(N5CCOCC5)nc4c3)CC2)c2cccnc21 [Example 31, 5-(4-(1-methyl-1H-pyrazolo[3,4-b]pyridin-3-yl)piperidin-1-yl)-2-morpholinobenzo[d]oxazole] | 1000 to 10000 | –
22 | c1ccc2c(C3CCN(c4ccc5nc(N6CCOCC6)sc5n4)CC3)n[nH]c2c1 [Example 106, 4-(5-(4-(1H-indazol-3-yl)piperidin-1-yl)thiazolo[5,4-b]pyridin-2-yl)morpholine] | 1000 to 10000 | –
23 | Cn1cc(C2CCN(c3cc4nc(N5CCOCC5)oc4cn3)C2)c2cc(F)cnc21 (stereo not shown) [Example 87, 6-(3-(5-fluoro-1-methyl-1H-pyrrolo[2,3-b]pyridin-3-yl)pyrrolidin-1-yl)-2-morpholinooxazolo[5,4-c]pyridine] | 1000 to 10000 | –
24 | Cn1cc(-c2ccc3oc(N4CCOCC4)nc3c2)c2cc(F)cnc21 [Example 3, 5-(5-fluoro-1-methyl-1H-pyrrolo[2,3-b]pyridin-3-yl)-2-morpholinobenzo[d]oxazole] | 1000 to 10000 | –
25 | Cn1cc(C2CCN(c3ccc4sc(N5CCOCC5)nc4c3)C2)c2cc(F)cnc21 (stereo not shown) [Example 95, 4-(5-(3-(5-fluoro-1-methyl-1H-pyrrolo[2,3-b]pyridin-3-yl)pyrrolidin-1-yl)benzo[d]thiazol-2-yl)morpholine] | 1000 to 10000 | –
26 | COc1cccc2c(C3CCN(c4ccc5oc(N6CCOCC6)nc5c4)CC3)n[nH]c12 [Example 92, 5-(4-(7-methoxy-1H-indazol-3-yl)piperidin-1-yl)-2-morpholinobenzo[d]oxazole] | 1000 to 10000 | –
27 | Cn1cc(C2CCN(c3ccc4nc(N5CCOCC5)oc4c3)C2)c2cc(F)cnc21 (stereo not shown) [Example 89, 6-(3-(5-fluoro-1-methyl-1H-pyrrolo[2,3-b]pyridin-3-yl)pyrrolidin-1-yl)-2-morpholinobenzo[d]oxazole] | < 1000 | –
28 | Cn1cc(C2CCN(c3ccc4oc(N5CC6CC(C5)O6)nc4c3)C2)c2cc(F)cnc21 (stereo not shown) [Example 98, 3-(5-(3-(5-fluoro-1-methyl-1H-pyrrolo[2,3-b]pyridin-3-yl)pyrrolidin-1-yl)benzo[d]oxazol-2-yl)-6-oxa-3-azabicyclo[3.1.1]heptane] | – | EC50 ([2]; flTau disaggregation EC50, ThT fluorescence): 1000 to 10000 nM
29 | c1ccc2c(C3CCN(c4cc5nc(N6CCOCC6)oc5cn4)CC3)c[nH]c2c1 [Example 48, 6-(4-(1H-indol-3-yl)piperidin-1-yl)-2-morpholinooxazolo[5,4-c]pyridine] | 1000 to 10000 | –
30 | Cn1cc(C2CCN(c3ccc4nc(N5CCOCC5)oc4c3)C2)c2cc(F)cnc21 (stereo not shown) [Example 88, 6-(3-(5-fluoro-1-methyl-1H-pyrrolo[2,3-b]pyridin-3-yl)pyrrolidin-1-yl)-2-morpholinobenzo[d]oxazole] | < 1000 | –
31 | Cn1cc(C2CCN(c3ccc4oc(N5CCOCC5)nc4c3)CC2)c2ncc(F)cc21 [Example 105, 5-(4-(6-fluoro-1-methyl-1H-pyrrolo[3,2-b]pyridin-3-yl)piperidin-1-yl)-2-morpholinobenzo[d]oxazole] | 10000 to 50000 | –
